Measurements reported in the supplement of paper PMC13380429.

Legend:
Conditions in all cases: 72 h
Caco-2 [1] = test: cell viability relative to DMSO; higher = less toxic
Calu-3 [2] = test: as above
HepG2 [3] = test: as above
U2OS [4] = test: as above
Vero E6 [5] = test: as above
Caco-2 [6] = test: relative viability EC50 (midpoint between 100% and the lowest measured viability); higher = less toxic
Calu-3 [7] = test: as above
HepG2 [8] = test: as above
U2OS [9] = test: as above
Vero E6 [10] = test: as above
Caco-2 [11] = test: drug sensitivity score (DSS) for viability; higher = more toxic; extreme values may be limits of the assay
Calu-3 [12] = test: as above
HepG2 [13] = test: as above
U2OS [14] = test: as above
Vero E6 [15] = test: as above

Structure (SMILES) | cell viability (Caco-2 [1]; 1 nM) [%] | cell viability (Caco-2 [1]; 10 nM) [%] | cell viability (Caco-2 [1]; 100 nM) [%] | cell viability (Caco-2 [1]; 1000 nM) [%] | cell viability (Caco-2 [1]; 10000 nM) [%] | cell viability (Calu-3 [2]; 1 nM) [%] | cell viability (Calu-3 [2]; 10 nM) [%] | cell viability (Calu-3 [2]; 100 nM) [%] | cell viability (Calu-3 [2]; 1000 nM) [%] | cell viability (Calu-3 [2]; 10000 nM) [%] | cell viability (HepG2 [3]; 1 nM) [%] | cell viability (HepG2 [3]; 10 nM) [%] | cell viability (HepG2 [3]; 100 nM) [%] | cell viability (HepG2 [3]; 1000 nM) [%] | cell viability (HepG2 [3]; 10000 nM) [%] | cell viability (U2OS [4]; 1 nM) [%] | cell viability (U2OS [4]; 10 nM) [%] | cell viability (U2OS [4]; 100 nM) [%] | cell viability (U2OS [4]; 1000 nM) [%] | cell viability (U2OS [4]; 10000 nM) [%] | cell viability (Vero E6 [5]; 1 nM) [%] | cell viability (Vero E6 [5]; 10 nM) [%] | cell viability (Vero E6 [5]; 100 nM) [%] | cell viability (Vero E6 [5]; 1000 nM) [%] | cell viability (Vero E6 [5]; 10000 nM) [%] | relative viability EC50 (Caco-2 [6]) [µM] | relative viability EC50 (Calu-3 [7]) [µM] | relative viability EC50 (HepG2 [8]) [µM] | relative viability EC50 (U2OS [9]) [µM] | relative viability EC50 (Vero E6 [10]) [µM] | drug sensitivity score (Caco-2 [11]) | drug sensitivity score (Calu-3 [12]) | drug sensitivity score (HepG2 [13]) | drug sensitivity score (U2OS [14]) | drug sensitivity score (Vero E6 [15])
CN(C(=O)c1ccc(F)cc1C(F)(F)F)C1CCN(c2nnc(-c3ccnn3C)c3ccccc23)CC1 [taladegib] | 96.9 | 92.2 | 87.7 | 106 | 92.8 | 93.1 | 93.7 | 92.8 | 109 | 99.4 | 120 | 113 | 111 | 93.5 | 93.2 | 94.9 | 101 | 93 | 101 | 95.6 | 106 | 99.5 | 102 | 90.9 | 91.4 | > 10 | > 10 | > 10 | > 10 | > 10 | 0 | 0 | 0 | 0 | 0
Cn1c(C#N)ccc1-c1ccc2c(c1)C(C)(C)OC(=S)N2 [tanaproget] | 98 | 101 | 100 | 94.8 | 75.4 | 105 | 106 | 101 | 108 | 88.9 | 106 | 109 | 95.8 | 87 | 24.7 | 102 | 103 | 102 | 103 | 94.9 | 102 | 103 | 98.2 | 105 | 107 | > 10 | > 10 | 1.86 | > 10 | > 10 | 1.7 | 0 | 6.3 | 0 | 0
O=C1c2c(O)cc(O)cc2O[C@H](c2ccc(O)c(O)c2)[C@H]1O [taxifolin] | 91.5 | 106 | 105 | 104 | 96 | 101 | 110 | 90.1 | 102 | 99.5 | 101 | 94.4 | 98.5 | 100 | 97.5 | 95.2 | 96.5 | 92.9 | 96.2 | 89.9 | 94.4 | 99.4 | 94.2 | 97.6 | 104 | > 10 | > 10 | > 10 | > 10 | > 10 | 0 | 0 | 0 | 0 | 0
CCN(c1cc(-c2ccc(CN3CCOCC3)cc2)cc(C(=O)NCc2c(C)cc(C)[nH]c2=O)c1C)C1CCOCC1 [tazemetostat] | 91.9 | 101 | 98.9 | 101 | 92.6 | 91.2 | 103 | 98.3 | 98 | 104 | 86.1 | 97 | 90.3 | 96.9 | 95.3 | 97.7 | 96.9 | 101 | 102 | 93.8 | 96.2 | 97.7 | 95.2 | 98.9 | 98.9 | > 10 | > 10 | > 10 | > 10 | > 10 | 0 | 0 | 0 | 0 | 0
O=C1C(O)=C(O)C(=O)C(O)=C1O [tetroquinone] | 103 | 99.6 | 96.9 | 104 | 97.6 | 97.3 | 98.2 | 98.1 | 87.1 | 93.3 | 97.9 | 100 | 101 | 106 | 91.7 | 99.9 | 99.5 | 97.8 | 99.8 | 104 | 98.3 | 100 | 97.6 | 96.7 | 95.1 | > 10 | > 10 | > 10 | > 10 | > 10 | 0 | 0 | 0 | 0 | 0
CSc1ccccc1OCC(O)CNC(C)C (stereo not given) [tiprenolol] | 108 | 102 | 93.6 | 83 | 113 | 104 | 106 | 100 | 97.3 | 103 | 98.6 | 92.6 | 102 | 99.9 | 98.5 | 97.9 | 96.2 | 106 | 101 | 99.3 | 100 | 98.5 | 98.6 | 91.8 | 86.7 | > 10 | > 10 | > 10 | > 10 | > 10 | 0 | 0 | 0 | 0 | 0.3
C#Cc1cnc2nc(O)n(C(CC)CC)c2n1 [tirasemtiv] | 90.7 | 92.8 | 103 | 107 | 103 | 95.8 | 98.7 | 103 | 95.7 | 106 | 102 | 113 | 99.4 | 115 | 98.5 | 103 | 100 | 101 | 98.6 | 98.5 | 94.8 | 101 | 93.4 | 96.9 | 106 | > 10 | > 10 | > 10 | > 10 | > 10 | 0 | 0 | 0 | 0 | 0
CCc1ccc(Cc2ccc3c(c2)[C@]2(OC3)O[C@H](CO)[C@@H](O)[C@H](O)[C@H]2O)cc1 [tofogliflozin] | 97.8 | 98.5 | 86.1 | 97 | 90.5 | 90.9 | 92.7 | 108 | 103 | 108 | 106 | 94.3 | 102 | 105 | 95.5 | 97.9 | 96.9 | 97.5 | 98 | 95.5 | 93.9 | 95.6 | 99.4 | 94.6 | 98.4 | > 10 | > 10 | > 10 | > 10 | > 10 | 0 | 0 | 0 | 0 | 0
CCCCC/C=C\C=C\CCCCCCCCC(=O)O [trans-10,cis-12-conjugated-linoleic-acid] | 94.9 | 101 | 96.6 | 101 | 99.6 | 102 | 96.1 | 100 | 96.2 | 101 | 107 | 92 | 90.8 | 101 | 100 | 97.8 | 96.8 | 103 | 97.4 | 102 | 109 | 108 | 102 | 102 | 99.1 | > 10 | > 10 | > 10 | > 10 | > 10 | 0 | 0 | 0 | 0 | 0
CCOC1O[C@H]([C@@H](COCc2ccccc2)OCc2ccccc2)[C@H](OCc2ccccc2)[C@H]1O (stereo not given in full) [tribenoside] | 93 | 96.2 | 90.3 | 95.6 | 94 | 93.5 | 94.6 | 102 | 105 | 106 | 91.4 | 104 | 93.6 | 92.6 | 94.2 | 93.9 | 96.3 | 101 | 97.3 | 98 | 91.6 | 94.8 | 91.6 | 93.7 | 111 | > 10 | > 10 | > 10 | > 10 | > 10 | 0 | 0 | 0 | 0 | 0
Cc1c(C)c2c(c(C)c1O)CCC(C)(C(=O)O)O2 (stereo not given) [trolox] | 106 | 103 | 88.5 | 93.3 | 90.9 | 105 | 105 | 98.1 | 106 | 104 | 96.8 | 90.2 | 92.6 | 87.6 | 98.8 | 104 | 95.6 | 105 | 97 | 103 | 94.7 | 105 | 102 | 95.9 | 77.9 | > 10 | > 10 | > 10 | > 10 | > 10 | 0.8 | 0 | 0 | 0 | 1.3
NC(CO)(CO)CO [trometamol] | 93.4 | 102 | 111 | 112 | 97.3 | 92.4 | 117 | 103 | 101 | 108 | 101 | 93.7 | 106 | 86 | 100 | 93.3 | 96.6 | 98.8 | 101 | 107 | 102 | 98.6 | 106 | 86.4 | 95.4 | > 10 | > 10 | > 10 | > 10 | > 10 | 0 | 0 | 0 | 0 | 0
O=P(O)(O)C(O)(Cn1ccnc1)P(=O)(O)O [zoledronic-acid] | 98.2 | 95.1 | 96.8 | 93.2 | 91.6 | 110 | 100 | 91.9 | 93.4 | 97.7 | 101 | 98.7 | 95.2 | 97.7 | 94.1 | 96.5 | 96.2 | 100 | 99.3 | 97.2 | 99.7 | 104 | 100 | 98.9 | 99.3 | > 10 | > 10 | > 10 | > 10 | > 10 | 0 | 0 | 0 | 0 | 0
